Assay results: PMC6917776, “Discovery of a chemical probe for PRDM9” (Nature Communications, 2019)
Values joined by “and” are separate entries in the source; they are usually repeats but may differ in a detail not shown here. Identical values can stand only once. Like-named read-outs stand apart in the source and are kept apart here.

Tests used:
[1] = target: T1, PRDM9 (amino acids: 195–415) (Homo sapiens, UniProt Q9NQV7); test: PRDM9 methyltransferase activity assay (3H-SAM scintillation proximity assay); type: biochemical; settings: for activity at 100 µM: 100 µM compound
T1 construct: PRDM9 (amino acids: 195–415)
T1 sequence (Q9NQV7 195-415): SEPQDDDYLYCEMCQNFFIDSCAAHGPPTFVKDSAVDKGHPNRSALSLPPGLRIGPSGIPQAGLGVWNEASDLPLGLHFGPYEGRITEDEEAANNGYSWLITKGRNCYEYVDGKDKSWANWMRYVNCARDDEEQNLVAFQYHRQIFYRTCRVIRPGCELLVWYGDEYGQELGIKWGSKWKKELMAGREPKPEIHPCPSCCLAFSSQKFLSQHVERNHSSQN
Procedure: Methyltransferase activity assays for PRDM9 (amino acids: 195–415) were performed by monitoring the incorporation of tritium-labeled methyl group from ^3H-SAM to H3 (1–25) peptide using scintillation proximity assay (SPA). The enzymatic reactions were performed at 23 °C with 30 min incubation in 20 mM Tris-HCl (pH 7.5), 5 mM DTT, 0.01% Triton X-100 and 1% DMSO containing 71 μM of SAM (5 μM of ^3H-SAM), 4 μM of biotinylated H3 (1–25) peptide and 5 nM of PRDM9. For PRDM7, reactions were performed at 23 °C with 90 min incubation in 20 mM BTP pH 9.0, 5 mM DTT, 0.01% Triton X-100 and 1% DMSO containing 900 μM of SAM (5 μM of ^3H-SAM), 4 μM of biotinylated H3 (1–25) peptide and 100 nM of enzyme. […] To stop the reactions, 10 μL of 7.5 M guanidine hydrochloride was added to 10 μL of reaction mixture, followed by 60 μL of buffer (20 mM Tris, pH 8.0), mixed, and transferred to a 384-well streptavidin coated Flash-plate. After mixing, the mixtures in Flash-plate were incubated for 2 h, and the CPM counts were measured using TopCount plate reader. All enzymatic reactions were performed in triplicate, and IC50 values were determined by fitting the data to Four Parameter Logistic equation using the GraphPad Prism software.

[2] = target: PRDM9 (Homo sapiens, UniProt Q9NQV7); test: PRDM9 cellular assay: H3K4me3 of exogenous H3-GFP in HEK293T cells (western blot); type: cell-based
Sequence of PRDM9 (Q9NQV7 whole entry): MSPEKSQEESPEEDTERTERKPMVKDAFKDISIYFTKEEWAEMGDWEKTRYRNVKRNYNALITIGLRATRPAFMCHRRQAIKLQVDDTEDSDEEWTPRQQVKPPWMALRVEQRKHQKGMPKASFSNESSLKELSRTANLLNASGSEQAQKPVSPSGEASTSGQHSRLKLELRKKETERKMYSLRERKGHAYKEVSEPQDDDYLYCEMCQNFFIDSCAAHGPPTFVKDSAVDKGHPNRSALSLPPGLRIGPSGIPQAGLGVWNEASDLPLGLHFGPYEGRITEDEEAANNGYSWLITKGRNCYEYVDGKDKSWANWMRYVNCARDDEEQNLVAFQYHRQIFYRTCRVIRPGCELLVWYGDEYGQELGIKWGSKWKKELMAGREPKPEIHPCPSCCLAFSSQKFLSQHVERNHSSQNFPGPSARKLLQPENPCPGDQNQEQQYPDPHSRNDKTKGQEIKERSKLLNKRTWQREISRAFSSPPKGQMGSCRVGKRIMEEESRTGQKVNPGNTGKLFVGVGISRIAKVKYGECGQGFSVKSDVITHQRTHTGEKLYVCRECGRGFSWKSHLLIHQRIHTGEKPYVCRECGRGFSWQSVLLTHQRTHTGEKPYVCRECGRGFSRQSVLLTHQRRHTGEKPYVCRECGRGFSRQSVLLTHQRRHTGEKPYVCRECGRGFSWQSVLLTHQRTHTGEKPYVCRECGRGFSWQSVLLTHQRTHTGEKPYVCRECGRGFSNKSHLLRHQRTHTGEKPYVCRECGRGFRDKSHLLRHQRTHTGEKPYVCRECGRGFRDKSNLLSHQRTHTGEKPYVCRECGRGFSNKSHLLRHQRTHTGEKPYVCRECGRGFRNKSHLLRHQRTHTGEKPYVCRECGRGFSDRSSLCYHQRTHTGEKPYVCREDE
Procedure: HEK293T cells were co-transfected with H3-GFP and PRDM9-FLAG and treated with compounds at indicated concentrations for 20 h. Mut denotes PRDM9 catalytic mutant (Y357S). […] Cells were treated with compounds for 1 day. Cell number was measured using IncuCyte™ ZOOM live cell imaging device. The results are mean ± sd, n = 3. Source data are provided as a Source Data file.
HEK293T (kind gift from Sam Benchimol, York University), or MCF7 (ATCC® HTB-22™), cells were plated (12 well plates) and next day co-transfected with 0.1 (HEK293T) or 0.2 (MCF7) µg of GFP-tagged histone H3 and with 0.1 (HEK293T) or 0.2 (MCF7) µg of Flag-tagged PRDM9/PRDM9 catalytic mutant (Y357S) and 0.8 or 0.6 µg of empty vector using JetPRIME® transfection reagent, following manufacturer instructions. After 4 h media was removed and cells were treated with compounds for 20 h. Next day, cells were lysed in lysis buffer (20 mM Tris-HCl pH 8, 150 mM NaCl, 1 mM EDTA, 10 mM MgCl2, 0.5% TritonX-100, 12.5 U mL^−1 benzonase (Sigma), complete EDTA-free protease inhibitor cocktail (Roche)). After 2 min incubation at RT, SDS was added to final 1% concentration. Cell lysates were analyzed in western blot for GFP and H3K4me3 levels. All cell lines were mycoplasma negative, as determined by MycoAlert™ Mycoplasma Detection Kit (Lonza).
Total cell lysates were resolved in 4–12% Bis-Tris Protein Gels (Invitrogen) and transferred in for 1.5 h (80 V) onto PVDF membrane (Millipore) in Tris-Glycine transfer buffer containing 20% MeOH and 0.05% SDS. Blots were blocked for 1 h in blocking buffer (5% milk in PBS) and incubated with primary antibodies anti-GFP (1:3000, Clontech # 632381), anti-H3K4me3 (1:1000, Millipore, #04-745), anti-histone H3 (1:2000, #ab10799, Abcam), anti-Flag (1:5000, #F4799, Sigma) in blocking buffer (5% BSA in 0.1% Tween 20 PBS) overnight at 4 °C. After five washes with 0.1% Tween 20 PBS the blots were incubated with goat-anti rabbit (IR800) and donkey anti-mouse (IR 680) antibodies (1:5000) in Odyssey Blocking Buffer (LiCor) for 1 h at RT and washed five times with 0.1% Tween 20 PBS. The signal was read on an Odyssey scanner (LiCor) at 800 nm and 700 nm and analyzed with Image Studio Ver.5.2 software.

## COc1cc(OC)cc(-c2noc(N3CCN(C)C4(CCN(c5ccccc5)CC4)C3)n2)c1 [MRK-740 -NC]
[1]; PRDM9, 1µM compound, Exp1, Exp2
  activity at 1 µM: 97%
[1]; PRDM9, 1µM compound, Exp1, Exp2, 1 µM
  Activity %: 90%
[1]; PRDM9, 10µM compound, Exp1, Exp2
  activity at 10 µM: 96%
[1]; PRDM9, 10µM compound, Exp1, Exp2, 10 µM
  Activity %: 93%

## COc1cc(OC)cc(-c2noc(N3CCN(C)C4(CCN(c5ccccc5)CC4)C3)n2)c1 [MRK-740-NC]
[2]; H3-GFP and PRDM9-FLAG co-transfected, 20 h of treatment, read-out: IC50, PRDM9-dependent trimethylation of ectopic H3K4
  IC50: > 10 µM
[2]; HEK-293T, 20 h, 0.256 µM, Figure 6b, replicates, read-out: H3K4me3/GFP - western blot, % control
  remaining activity at 0.256 µM: 100%
[2]; HEK-293T, 20 h, 0.64 µM, Figure 6b, replicates, read-out: H3K4me3/GFP - western blot, % control
  remaining activity at 0.64 µM: 89.9%
[2]; HEK-293T, 20 h, 1.6 µM, Figure 6b, replicates, read-out: H3K4me3/GFP - western blot, % control
  remaining activity at 1.6 µM: 103%
[2]; HEK-293T, 20 h, 3.33334 µM, Figure 6b, replicates, read-out: H3K4me3/GFP - western blot, % control
  remaining activity at 3.33334 µM: 113%
[2]; HEK-293T, 20 h, 4 µM, Figure 6b, replicates, read-out: H3K4me3/GFP - western blot, % control
  remaining activity at 4 µM: 111%
[2]; HEK-293T, 20 h, 10 µM, Figure 6b, replicates, read-out: H3K4me3/GFP - western blot, % control
  remaining activity at 10 µM: 116%
[1]
  PRDM9 inhibition (in words): inactive control compound
[1]; 0.00610352 µM compound, 0.00610352 µM
  PRDM9-Activity %, single experiments: 111.779% and 111.39%
[1]; 0.00610352 µM compound, n=6 MRK-740, n=3 MRK-740-NC, read-out: PRDM9-Activity %, Average
  activity at 0.00610352 µM: 110%
[1]; 0.00610352 µM compound, read-out: PRDM9-Activity %, single experiments
  activity at 0.00610352 µM: 108%
[1]; 0.012207 µM compound, 0.012207 µM
  PRDM9-Activity %, single experiments: 116.346% and 113.283%
[1]; 0.012207 µM compound, n=6 MRK-740, n=3 MRK-740-NC, read-out: PRDM9-Activity %, Average
  activity at 0.012207 µM: 115%
[1]; 0.012207 µM compound, read-out: PRDM9-Activity %, single experiments
  activity at 0.012207 µM: 116%
[1]; 0.0244141 µM compound, 0.0244141 µM
  PRDM9-Activity %, single experiments: 104.873% and 111.39%
[1]; 0.0244141 µM compound, n=6 MRK-740, n=3 MRK-740-NC, read-out: PRDM9-Activity %, Average
  activity at 0.0244141 µM: 111%
[1]; 0.0244141 µM compound, read-out: PRDM9-Activity %, single experiments
  activity at 0.0244141 µM: 116%
[1]; 0.0488281 µM compound, 0.0488281 µM
  PRDM9-Activity %, single experiments: 125.258% and 118.268%
[1]; 0.0488281 µM compound, n=6 MRK-740, n=3 MRK-740-NC, read-out: PRDM9-Activity %, Average
  activity at 0.0488281 µM: 122%
[1]; 0.0488281 µM compound, read-out: PRDM9-Activity %, single experiments
  activity at 0.0488281 µM: 121%
[1]; 0.0976562 µM compound, 0.0976562 µM
  PRDM9-Activity %, single experiments: 107.407% and 111.807%
[1]; 0.0976562 µM compound, n=6 MRK-740, n=3 MRK-740-NC, read-out: PRDM9-Activity %, Average
  activity at 0.0976562 µM: 109%
[1]; 0.0976562 µM compound, read-out: PRDM9-Activity %, single experiments
  activity at 0.0976562 µM: 108%
[1]; 0.195312 µM compound, 0.195312 µM
  PRDM9-Activity %, single experiments: 118.212% and 116.151%
[1]; 0.195312 µM compound, n=6 MRK-740, n=3 MRK-740-NC, read-out: PRDM9-Activity %, Average
  activity at 0.195312 µM: 119%
[1]; 0.195312 µM compound, read-out: PRDM9-Activity %, single experiments
  activity at 0.195312 µM: 122%
[1]; 0.390625 µM compound, 0.390625 µM
  PRDM9-Activity %, single experiments: 107.574% and 115.149%
[1]; 0.390625 µM compound, n=6 MRK-740, n=3 MRK-740-NC, read-out: PRDM9-Activity %, Average
  activity at 0.390625 µM: 111%
[1]; 0.390625 µM compound, read-out: PRDM9-Activity %, single experiments
  activity at 0.390625 µM: 112%
[1]; 0.78125 µM compound, 0.78125 µM
  PRDM9-Activity %, single experiments: 116.708% and 121.749%
[1]; 0.78125 µM compound, n=6 MRK-740, n=3 MRK-740-NC, read-out: PRDM9-Activity %, Average
  activity at 0.78125 µM: 119%
[1]; 0.78125 µM compound, read-out: PRDM9-Activity %, single experiments
  activity at 0.78125 µM: 120%
[1]; 1.5625 µM compound, 1.5625 µM
  PRDM9-Activity %, single experiments: 114.731% and 115.595%
[1]; 1.5625 µM compound, n=6 MRK-740, n=3 MRK-740-NC, read-out: PRDM9-Activity %, Average
  activity at 1.5625 µM: 116%
[1]; 1.5625 µM compound, read-out: PRDM9-Activity %, single experiments
  activity at 1.5625 µM: 117%
[1]; 3.125 µM compound, 3.125 µM
  PRDM9-Activity %, single experiments: 124.004% and 125.898%
[1]; 3.125 µM compound, n=6 MRK-740, n=3 MRK-740-NC, read-out: PRDM9-Activity %, Average
  activity at 3.125 µM: 123%
[1]; 3.125 µM compound, read-out: PRDM9-Activity %, single experiments
  activity at 3.125 µM: 120%
[1]; 6.25 µM compound, 6.25 µM
  PRDM9-Activity %, single experiments: 105.486% and 104.623%
[1]; 6.25 µM compound, n=6 MRK-740, n=3 MRK-740-NC, read-out: PRDM9-Activity %, Average
  activity at 6.25 µM: 105%
[1]; 6.25 µM compound, read-out: PRDM9-Activity %, single experiments
  activity at 6.25 µM: 105%
[1]; 12.5 µM compound, 12.5 µM
  PRDM9-Activity %, single experiments: 112.476% and 115.762%
[1]; 12.5 µM compound, n=6 MRK-740, n=3 MRK-740-NC, read-out: PRDM9-Activity %, Average
  activity at 12.5 µM: 114%
[1]; 12.5 µM compound, read-out: PRDM9-Activity %, single experiments
  activity at 12.5 µM: 114%
[1]; 25 µM compound, 25 µM
  PRDM9-Activity %, single experiments: 98.6355% and 87.9699%
[1]; 25 µM compound, n=6 MRK-740, n=3 MRK-740-NC, read-out: PRDM9-Activity %, Average
  activity at 25 µM: 94.3%
[1]; 25 µM compound, read-out: PRDM9-Activity %, single experiments
  activity at 25 µM: 96.2%
[1]; 50 µM compound, 50 µM
  PRDM9-Activity %, single experiments: 103.397% and 100.975%
[1]; 50 µM compound, n=6 MRK-740, n=3 MRK-740-NC, read-out: PRDM9-Activity %, Average
  activity at 50 µM: 102%
[1]; 50 µM compound, read-out: PRDM9-Activity %, single experiments
  activity at 50 µM: 101%
[1]; n=3, read-out: PRDM9-Activity %, Average
  activity at 100 µM: 80.5%
[1]; read-out: PRDM9-Activity %, single experiments
  activity at 100 µM: 82.7%
